Source: patent publication US8247407B2, priority 2007, dated 2012)
Several values for one entry are separate records, joined by “and”; a condition that tells them apart may be missing. Identical values can stand only once. Counter-ions that a name gives are not always drawn.

What was measured:
[1] = system: rats with alloxan diabetes; assay: Hypoglycemic activity, alloxan diabetes model in rats (Example 1); format: in vivo, rat
Procedure: The pharmaceutical compositions for determination of anti-diabetic action had the following composition: active compound—1 g, potato starch—1 g, water—100 ml.
(§1) The comparison of anti-diabetic action of compounds was carried out using a standard model of alloxan diabetes and metmorphin as a comparative drug. The alloxan diabetes was induced by a single subcutaneous injection of water solution of alloxan hydrate (ICN Biomedicals, USA) at a dose of 150 mg/kg to rats weighting 180-200 g that have fasted for 24 hours. The following animal groups were studied: intact rats, diabetic non-treated rats, diabetic rats receiving Polfa-Kutno Ltd.″ metmorphin daily (for 23 days, 200 mg/kg); diabetic rats receiving daily (for 20 days) the abovementioned pharmaceutical compositions containing, as an active components, the compounds described in this invention: MC-200-MC-225. The compounds were administered intragastrically once a day in starch gel at a dose of 50 mg/kg rat weight.
(§2) The experimental drug doses were selected assuming the expected therapeutic doses for man and previously determined toxic doses (LD50 of studied compounds was approximately 500-1,000 mg/kg). The metmorphin dose for rats was extrapolated from the therapeutic dose for man. Drug administration was started on the third day after alloxan injection when blood glucose level increased approximately 3-fold as compared to control value. Each group consisted of 20 animals of both genders.

[2] = system: white rats with experimental diabetes (alloxan diabetes); assay: Anti-diabetic, hypolipidemic and hypocholesteremic activity, alloxan diabetes model in rats (Example 2); format: in vivo, rat; conditions: compounds 50 mg/kg, metmorphin 200 mg/kg daily
Procedure: as §1, §2
Pharmaceutical compositions for determination of anti-diabetic action had the same composition as that given in Example I.
The comparison of the anti-diabetic action of compounds was carried out using a standard model of alloxan diabetes, as described in Example I, and metmorphin as a comparative drug.
In the course of experiment, the following parameters were recorded: animal general condition, water consumption, body mass, levels of glucose, total lipids, tri-glycerides, serum blood cholesterol, and glycosylated hemoglobin, using the generally accepted techniques (Laboratory methods of studies in clinical practice, V. V. Menshikov, Ed., Moscow, “Medicine”, 1987).

[3] = system: pancreatic Langerhans islets of rats with alloxan diabetes; assay: Histological examination of the pancreas of alloxan-diabetic rats (Example 3); format: in vivo, rat; conditions: in 20 days after treatment; for Pancreatic Langerhans islet structure, aldehyde fuchsine staining: magnification 20×7; for Pancreatic Langerhans islet structure, haematoxylin-eosin staining: magnification 40×7
Procedure: Histological examination of pancreatic structure was carried out using the haematoxylin-eosin and aldehyde fuchsine staining of pancreatic sections using standard techniques.

patients = conditions: cited from earlier work
[4] = diabetic rats' blood, in 10 days, compounds 50 mg/kg intragastrically once a day in starch gel, metmorphin 200 mg/kg daily
[5] = diabetic rats' blood, in 20 days, compounds 50 mg/kg intragastrically once a day in starch gel, metmorphin 200 mg/kg daily

Row | SMILES | Glucose content, mmol/l, in 10 days ([1]; rat, in vivo) | Body mass ([2]; in 10 days) | Cholesterol ([2]; in 10 days) | Daily water consumption ([2]; in 10 days) | Glucose ([2]; in 10 days) | Glycosylated hemoglobin ([2]; in 10 days) | Percent of survived rats ([2]; in 10 days) | Total lipids ([2]; in 10 days) | Tri-glycerides ([2]; in 10 days) | β-lipoproteins ([2]; in 10 days) | Body mass ([2]; in 20 days) | Cholesterol ([2]; in 20 days) | Daily water consumption ([2]; in 20 days) | Glucose ([2]; in 20 days) | Glycosylated hemoglobin ([2]; in 20 days) | Percent of survived rats ([2]; in 20 days) | Total lipids ([2]; in 20 days) | Tri-glycerides ([2]; in 20 days) | β-lipoproteins ([2]; in 20 days) | Pancreatic Langerhans islet structure, haematoxylin-eosin staining [3] | other results
1 | CCOC(=O)c1c(CSc2ccc3ccccc3c2)n(C)c2cc(Br)c(O)c(CN(C)C)c12 [MC-217, 1-methyl-2-β-naphthylthiomethyl-3-carbethoxy-4-dimethylaminomethyl-5-hydroxy-6-bromoindole hydrochloride] | 5.2 ± 0.2 mmol/L | 190 ± 10 g | 2.4 ± 0.2 mmol/L | 25 ± 5 mL | 5.2 ± 0.2 mmol/L | 5.2 ± 0.2 mol % | 100% | 10.4 ± 0.5 g/L | 2.3 ± 0.2 mmol/L | 2.1 ± 0.2 g/L | 185 ± 10 g | 1.4 ± 0.2 mmol/L | 22 ± 5 mL | 4.8 ± 0.1 mmol/L | 4.9 ± 0.3 mol % | 100% | 10.2 ± 0.3 g/L | 1.5 ± 0.2 mmol/L | 2.1 ± 0.2 g/L | Restoration of pancreatic Langerhans islet | Glucose content, mmol/l, in 20 days ([1]; rat, in vivo): 4.8 ± 0.3 mmol/L; Pancreatic Langerhans islet structure, aldehyde fuchsine staining [3]: Restoration of pancreatic Langerhans islet
2 | CN(CCOc1ccc(CC2SC(=O)NC2=O)cc1)c1ccccn1 (stereo not drawn) [Avandia] | – | – | – | – | – | – | – | – | – | – | – | – | – | – | – | – | – | – | – | – | Fatality rate after infarction, higher than untreated group (patients; Avandia group as compared to the untreated group): 64%; Probability of myocardial infarction, higher than untreated group (patients; patients who took Avandia as compared to the untreated group): 43%
3 | CCOC(=O)c1c(CSc2ccccc2)n(C)c2cc(Br)c(O)c(CN(C)C)c12 [MC-200, 1-methyl-2-phenylthiomethyl-3-carbethoxy-4-dimethylaminomethyl-5-hydroxy-6-bromoindole hydrochloride] | – | 180 ± 5 g | 2.7 ± 0.4 mmol/L | 20 ± 3 mL | 5.6 ± 0.2 mmol/L | 6.2 ± 0.3 mol % | 100% | 10.2 ± 0.5 g/L | 2.5 ± 0.2 mmol/L | 2.0 ± 0.2 g/L | 182 ± 10 g | 1.5 ± 0.2 mmol/L | 24 ± 6 mL | 5.4 ± 0.3 mmol/L | 6.5 ± 05 mol % | 75% | 10.6 ± 1.0 g/L | 1.5 ± 0.2 mmol/L | 2.1 ± 0.3 g/L | Restoration of pancreatic Langerhans islet | Glucose content, mmol/l, in 10 days [1, 4]: 5.6 ± 0.2 mmol/L; Glucose content, mmol/l, in 20 days [1, 5]: 5.4 ± 0.3 mmol/L
4 | CN(C)C(=N)N=C(N)N [Metmorphin, reference compound] | – | 185 ± 5 g | 2.6 ± 0.3 mmol/L and 2.4 ± 0.3 mmol/L | 25 ± 3 mL | 6.6 ± 0.3 mmol/L and 6.4 ± 0.3 mmol/L | 5.1 ± 0.1 mol % and 5.0 ± 0.1 mol % | 100% | 10.6 ± 0.6 g/L and 10.5 ± 0.5 g/L | 2.6 ± 0.1 mmol/L | 2.2 ± 0.3 g/L and 2.2 ± 0.4 g/L | 180 ± 5 g | 1.7 ± 0.3 mmol/L and 1.6 ± 0.3 mmol/L | 20 ± 3 mL and 19 ± 3 mL | 6.4 ± 0.2 mmol/L and 6.3 ± 0.2 mmol/L | 6.2 ± 0.2 mol % and 6.1 ± 0.2 mol % | 80% | 11.6 ± 1.2 g/L and 11.5 ± 1.0 g/L | 1.6 ± 0.1 mmol/L and 1.6 ± 0.2 mmol/L | 2.2 ± 0.3 g/L and 2.2 ± 0.4 g/L | Restoration of pancreatic Langerhans islet | Glucose content, mmol/l, in 10 days [1, 4]: 6.6 ± 0.3 mmol/L; Glucose content, mmol/l, in 20 days [1, 5]: 6.4 ± 0.3 mmol/L; Pancreatic Langerhans islet structure, aldehyde fuchsine staining [3]: Restoration of pancreatic Langerhans islet
5 | CCOC(=O)c1c(CN2CCCC2)n(C)c2cc(-c3cccnc3)c3c(c12)CN(C)CO3 [MC-213, 9-carbethoxy-2,7-dimethyl-5-pyridine-3-yl-8-[(pyrrolidine-1-yl)methyl]-1,2,3,7-tetrahydro[1,3]oxazino [5,6-e] indole trihydrochloride] | 5.8 ± 0.4 mmol/L | 185 ± 5 g | 2.7 ± 0.5 mmol/L | 26 ± 5 mL | 5.8 ± 0.3 mmol/L | 6.4 ± 0.3 mol % | 90% | 10.5 ± 0.5 g/L | 2.5 ± 0.3 mmol/L | 2.2 ± 0.2 g/L | 183 ± 10 g | 1.5 ± 0.2 mmol/L | 25 ± 6 mL | 5.5 ± 0.3 mmol/L | 6.2 ± 0.5 mol % | 75% | 10.4 ± 1.0 g/L | 1.7 ± 0.2 mmol/L | 2.1 ± 0.2 g/L | – | Glucose content, mmol/l, in 20 days ([1]; rat, in vivo): 5.5 ± 0.3 mmol/L
